“And” between values parts separate entries of the source, which are not always exact repeats. Equal entries are not always repeated.
What was measured:
human hepatocytes = assay: Hepatocyte intrinsic clearance assay (metabolic stability), human hepatocytes; assay type: in vitro ADME; settings: for EH (hepatic extraction ratio) / CLint: Human Hepatocytes; for EH (hepatic extraction ratio): well stirred liver model, fu=1; for CLint: 1 μM test compound
From the text: (§1) The liver is an important organ in the body for drug metabolism. This Example describes hepatocyte intrinsic clearance assays using both human and rat hepatocytes to evaluate the metabolic stability of the indole compounds disclosed herein. The parameters measured include t1/2 (half-life), CLint (intrinsic clearance), and EH (hepatic extraction ratio).
(§2) Testosterone (Lot FE111011-01) was obtained from Cerilliant (Round Rock, Tex.). 7-hydroxycoumarin (Lot 11631ED) was obtained from Sigma Aldrich (St. Louis, Mo.). Cryopreserved human hepatocytes pooled from ten donor males (X008001), cryopreserved male IRC/CD-1 mouse hepatocytes (M005052), INVITROGRO HI Medium (incubation), and INVITROGRO HT Medium (thawing) were obtained from Bioreclamation IVT (Baltimore, Md.). All solvents were obtained from commercial sources and used without further purification.
(§3) Each test compound was prepared as a 1 mM stock solution in DMSO. A 2 μM solution of test compound and positive controls were prepared in INVITROGRO HI Medium (incubation). These solutions were pre-warmed in a sterile incubator set to maintain 37° C., 5% CO2, and 98% humidity. Cryopreserved hepatocytes were prepared at a concentration of 2×10^6 living cells/mL in incubation media and pre-warmed in the incubator. The compound solutions and hepatocyte mixtures were then combined at a ratio of 1:1 (v:v). The final volume of the reaction mixture was 750 μL, containing 1 μM test compound (10 μM for 7-hydroxycoumarin) and […]. The reaction mixture was placed in the incubator on a plate shaker. After 0, 15, 30, 60, 90, and 120 minutes of incubation, 100 μL of reaction mixtures were removed from the incubation plate and mixed with 150 μL of ice-cold acetonitrile in a designated well of a 96-well crash plate. The 96-well crash plate was placed on ice for 15 min, and samples were centrifuged (3,600 RPM, 10 min, 4° C.) to precipitate protein. The supernatants were diluted 1:1 (v:v) with water containing 0.15 μM verapamil and/or 1 μM tolbutamide (internal standards for positive and negative modes, respectively) in a 96-well shallow injection plate. This plate was sealed for LC-MS analysis. All measurements were done in duplicate.
(§4) The residual compound remaining (% R) was determined from LC-MS peak areas by comparison to the zero time point. Metabolic half-life (t1/2) and intrinsic clearance (CLint) values were calculated from the slope of the plot of ln (% R) vs. time and the concentration of hepatocytes present in the incubation. Percent remaining at 60 minutes was calculated by plugging in the 60 minute value into the slope equation generated by the percent remaining time points.
(§5) In vivo hepatic clearance CLH was calculated using the well stirred liver model according to the following equation:
(§6) [formula] where QH is the total liver blood flow, fu is unbound fraction of the drug, and CL′int is defined as follows: CL′int=CLint×(10^6 cells/g of liver weight)×(g liver weight/kg of body weight). In the first approximation, used in this study, fu=1.
(§7) Hepatic extraction ratio EH was calculated using the following equation:
(§8) [formula] Corresponding physiological parameters used in calculations for all species are shown below in Table 3.

AhR = target: T1, AhR (Homo sapiens, UniProt P35869); assay: EROD assay (7-ethoxy-resorufin-O-deethylase; CYP1A1 activity) in human HepG2 cells; assay type: cell-based; settings: for EC90: HepG2, human HepG2 cells
T1 construct: host or cells: human HepG2 cells
T1 sequence (P35869 11-848): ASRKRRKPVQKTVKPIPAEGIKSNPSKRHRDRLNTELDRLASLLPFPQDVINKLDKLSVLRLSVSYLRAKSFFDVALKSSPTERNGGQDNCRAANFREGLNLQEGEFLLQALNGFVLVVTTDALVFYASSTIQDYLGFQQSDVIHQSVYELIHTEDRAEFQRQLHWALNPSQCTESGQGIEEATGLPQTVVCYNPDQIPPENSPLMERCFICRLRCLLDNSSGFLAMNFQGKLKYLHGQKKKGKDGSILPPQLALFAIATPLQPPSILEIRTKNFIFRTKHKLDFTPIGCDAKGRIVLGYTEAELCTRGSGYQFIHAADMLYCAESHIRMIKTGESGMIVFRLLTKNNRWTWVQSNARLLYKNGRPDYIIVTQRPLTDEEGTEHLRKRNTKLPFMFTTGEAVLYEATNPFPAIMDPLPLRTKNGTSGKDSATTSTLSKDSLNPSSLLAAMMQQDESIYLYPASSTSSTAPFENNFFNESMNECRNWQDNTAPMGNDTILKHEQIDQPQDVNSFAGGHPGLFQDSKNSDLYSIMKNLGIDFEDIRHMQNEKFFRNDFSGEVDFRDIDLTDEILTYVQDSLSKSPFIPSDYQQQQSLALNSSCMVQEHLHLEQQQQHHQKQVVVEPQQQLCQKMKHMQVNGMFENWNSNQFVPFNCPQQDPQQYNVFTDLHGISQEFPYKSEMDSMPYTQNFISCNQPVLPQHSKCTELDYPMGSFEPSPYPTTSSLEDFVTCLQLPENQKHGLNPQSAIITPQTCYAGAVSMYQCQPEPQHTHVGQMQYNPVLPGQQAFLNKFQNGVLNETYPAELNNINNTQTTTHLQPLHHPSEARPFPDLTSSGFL
Protocol: CYP1A1 induction is under the control of the AhR signaling pathway. This Example describes an in vitro assay (7-ethoxy-resorufin-O-deethylase (EROD) assay) that evaluated the AhR modulating activities of the indole compounds described herein. In this assay, the indole compounds were incubated with human HepG2 cells or mouse Hepa1-6 cells. The activity of CYP1A1 in the cells was measured by the conversion of substrate 7-ethoxyresorufin, with the readout being a fluorescence signal associated with the conversion product. The EC50 values of the indole compounds as well as the maximum luminescence induced by them in the assay were determined.
Human HepG2 cells were obtained from Sigma Aldrich (Catalog 85011430-1VL).
Human HepG2 cells were grown to 60-80% confluency in tissue culture flasks, lifted with non-enzymatic cell dissociation solution (cell stripper), seeded in a 384-well plate at 5,000 cells per well, treated with the test compounds, and incubated for 20 hours overnight at 37° C. The treatment medium was removed and a solution of substrate 7-ethoxyresorufin (ETX) was added to initiate the reaction. The plate was incubated at 37° C. for 30 minutes. The reaction was subsequently terminated by adding tempered methanol. Fluorescent emission was measured at 590 nm with excitation at 530 nm in a FLEXSTATION III instrument (Molecular Devices).

[1] = CYP profiling: turnover in human liver microsomes, 30 min, no inhibitor; assay type: in vitro ADME; parameters: % Compound Metabolized at 30 min, No Inhibitor: concentration or dose not given beside the values; settings: HLMs
Protocol: In order to investigate the contributions of CYP1A2 and CYP3A4 to the metabolism of the compounds of the present disclosure, human liver microsomes were incubated with the test compounds for 30 minutes in the presence of selective chemical inhibitors furafylline (1A2) and ketoconazole (3A4).

[2] = Hepatocyte intrinsic clearance assay (metabolic stability), human hepatocytes; assay type: in vitro ADME; settings: male, human, cryopreserved pooled hepatocytes, Human Hepatocytes, 1 μM test compound
From the text: as §1, §2, §3, §4, §5, §6, §7, §8

| SMILES | EH (hepatic extraction ratio) (human hepatocytes) | EC90 (AhR; Plate 2) | EC50 (AhR; human HepG2 cells, Plate 2) | % Compound Metabolized at 30 min, No Inhibitor [1] | CLint (human hepatocytes) | half-life at 1 μM [2] | hepatocyte CLint at 1 μM [2] | EC90 (AhR; Plate 1) | EC50 (AhR; human HepG2 cells, Plate 1) | CLint lower than that of ARI-164 (fold improvement) (human hepatocytes; human hepatocytes) | fold more potent than ARI-164 by EC50 (AhR; human HepG2 cells) | fold more potent than ARI-164 by EC90 (AhR; human HepG2 cells) | fold more potent than ARI-187 by EC50 (AhR; human HepG2 cells) | fold more potent than ARI-187 by EC90 (AhR; human HepG2 cells) | metabolic turnover (in words) [1] | fold more potent than ARI-219 by EC50 (AhR; human HepG2 cells) | fold more potent than ARI-219 by EC90 (AhR; human HepG2 cells) |
| --- | --- | --- | --- | --- | --- | --- | --- | --- | --- | --- | --- | --- | --- | --- | --- | --- | --- |
| CCC(=O)c1csc(C(=O)c2c[nH]c3cc(F)ccc23)n1 [ARI-143, 1-(2-(6-fluoro-1H-indole-3-carbonyl)thiazol-4-yl)propan-1-one] | 26.1% and 25.5% and 25.7% | 347 nM | 95.2 nM | 69% and 91% |  |  |  |  |  |  |  |  |  |  |  |  |  |
| CC[C@H](O)c1csc(C(=O)c2c[nH]c3cc(F)ccc23)n1 [ARI-164, (S)-(6-Fluoro-1H-indol-3-yl)(4-(1-hydroxypropyl)thiazol-2-yl)methanone] | 25.3% and 24.6% and 25.2% and 19.9% | 138 nM | 104 nM | 37% | 13.556 μL/min/10^6 cells and 15.446 μL/min/10^6 cells and 13.712 μL/min/10^6 cells and 15.383 μL/min/10^6 cells | 0.7 h | 15.7 µL/min/1e6 cells | 134 nM | 104 nM |  |  |  |  |  |  |  |  |
| CC[C@H](N)c1csc(C(=O)c2c[nH]c3cc(F)ccc23)n1 [ARI-186, (S)-(4-(1-aminopropyl)thiazol-2-yl)(6-fluoro-1H-indol-3-yl)methanone] | 8.7% |  |  | 13% | 1.453 μL/min/10^6 cells | 7.9 h | 1.5 µL/min/1e6 cells | 7.4 nM | 5.8 nM | 10.8 × | 17.8 × | 18.0 × | 9.5 × and 9.6 × | 20.5 × and 20.6 × | very low turnover |  |  |
| CC[C@@H](N)c1csc(C(=O)c2c[nH]c3cc(F)ccc23)n1 [ARI-187, (R)-(4-(1-aminopropyl)thiazol-2-yl)(6-fluoro-1H-indol-3-yl)methanone] | 4.4% |  |  | 4% |  | 18.6 h | 0.621 µL/min/1e6 cells | 152 nM | 55.6 nM |  |  |  |  |  |  |  |  |
| O=C(c1nc([C@@H](O)C(F)(F)F)cs1)c1c[nH]c2cc(F)ccc12 [ARI-211] | 23.6% |  |  | 50% |  | 1 h | 11.3 µL/min/1e6 cells | 183 nM | 35.9 nM |  |  |  |  |  |  |  |  |
| O=C(c1nc([C@H](O)C(F)(F)F)cs1)c1c[nH]c2cc(F)ccc12 [ARI-212] | 28.9% |  |  | 43% |  | 0.3 h | 44.1 µL/min/1e6 cells | 150 nM | 21.9 nM |  |  |  |  |  |  |  |  |
| CC[C@H](N)c1csc(C(=O)c2c[nH]c3ccc(F)cc23)n1 [ARI-218] | 22.2% | 7.9 nM | 6.3 nM | 16% |  | 1.3 h | 9.16 µL/min/1e6 cells |  |  |  |  |  |  |  |  | 19.7 × | 53 × |
| CC[C@@H](N)c1csc(C(=O)c2c[nH]c3ccc(F)cc23)n1 [ARI-219] | 11.5% | 419 nM | 124 nM | 13% |  | 5.3 h | 2.17 µL/min/1e6 cells |  |  |  |  |  |  |  |  |  |  |
| CC(C)(O)c1csc(C(=O)c2c[nH]c3cc(F)ccc23)n1 [ARI-220, (6-fluoro-1H-indol-3-yl)(4-(2-hydroxypropan-2-yl)thiazol-2-yl)methanone] | 21.6% | 476 nM | 372 nM | 41% |  | 1.4 h | 8.33 µL/min/1e6 cells |  |  |  |  |  |  |  |  |  |  |
| O=C(c1nc(C2(O)CC2)cs1)c1c[nH]c2cc(F)ccc12 [ARI-221, (6-fluoro-1H-indol-3-yl)(4-(1-hydroxycyclopropyl)thiazol-2-yl)methanone] | 27.3% | 34.5 nM | 26.1 nM | 95% |  | 0.5 h | 25.3 µL/min/1e6 cells |  |  |  |  |  |  |  |  |  |  |
| N[C@H](c1csc(C(=O)c2c[nH]c3cc(F)ccc23)n1)C(F)(F)F [ARI-223] | 23.7% | 103 nM | 22.6 nM | 79% |  | 1 h | 11.6 µL/min/1e6 cells |  |  |  |  |  |  |  | high turnover |  |  |
| N[C@@H](c1csc(C(=O)c2c[nH]c3cc(F)ccc23)n1)C(F)(F)F [ARI-224] | 15.8% | 152 nM | 33.7 nM | 9% |  | 3 h | 3.85 µL/min/1e6 cells |  |  |  | 3.1 × | 0.90 × |  |  | low turnover |  |  |
| NC1(c2csc(C(=O)c3c[nH]c4cc(F)ccc34)n2)CC1 [ARI-225, (4-(1-aminocyclopropyl)thiazol-2-yl)(6-fluoro-1H-indol-3-yl)methanone] | 17.8% | 109 nM | 46.8 nM | 39% |  | 2.3 h | 4.96 µL/min/1e6 cells |  |  |  |  |  |  |  | high turnover |  |  |

— patent publication US11390621B2, “Chiral indole compounds and their use” (ARIAGEN, INC., priority 2019, dated 2022)
